Results published in patent US11168057B2, “Polymorphs and co-crystals of roxadustat” (DR. REDDY'S LABORATORIES LIMITED, priority 2017, dated 2021).
Values belong to the compound of their own block, whether it stands above or below them.

Test: Storage stability in three ICH conditions for three months (water content, purity, PXRD)
Format: physicochemical
Details: for storage stability: all three ICH conditions for three months
Source text: The data presented below substantiate that the Form RLP has a high storage stability. Pack-1 (Normal LDPE Bag with 1 g Silica Gel, Packed in a HDPE Container):
Pack-2 (Black Colored LDPE Bag with 1 g Silica Gel, Packed in a HDPE Container):
The data presented below substantiate that the Form RNM has a high storage stability.
Pack-1 (LDPE Bag with 1 g Molecular Sieve, Packed in a HDPE Container):
Pack-2 (LDPE Bag with 1 g Silica Gel, Packed in a HDPE Container): […]

[1] = Pack-1 (Normal LDPE Bag with 1 g Silica Gel, HDPE Container), 2-8° C., 1st Month
[2] = Pack-1 (Normal LDPE Bag with 1 g Silica Gel, HDPE Container), 2-8° C., 3rd Month
[3] = Pack-1 (Normal LDPE Bag with 1 g Silica Gel, HDPE Container), 2-8° C., Initial
[4] = Pack-1 (Normal LDPE Bag with 1 g Silica Gel, HDPE Container), 25 ± 2° C., 60 ± 5% RH, 1st Month
[5] = Pack-1 (Normal LDPE Bag with 1 g Silica Gel, HDPE Container), 25 ± 2° C., 60 ± 5% RH, 3rd Month
[6] = Pack-1 (Normal LDPE Bag with 1 g Silica Gel, HDPE Container), 25 ± 2° C., 60 ± 5% RH, Initial
[7] = Pack-1 (Normal LDPE Bag with 1 g Silica Gel, HDPE Container), 40 ± 2° C., 75 ± 5% RH, 1st Month
[8] = Pack-1 (Normal LDPE Bag with 1 g Silica Gel, HDPE Container), 40 ± 2° C., 75 ± 5% RH, 3rd Month
[9] = Pack-1 (Normal LDPE Bag with 1 g Silica Gel, HDPE Container), 40 ± 2° C., 75 ± 5% RH, Initial
[10] = Pack-2 (Black Colored LDPE Bag with 1 g Silica Gel, HDPE Container), 2-8° C., 1st Month
[11] = Pack-2 (Black Colored LDPE Bag with 1 g Silica Gel, HDPE Container), 2-8° C., 3rd Month
[12] = Pack-2 (Black Colored LDPE Bag with 1 g Silica Gel, HDPE Container), 2-8° C., Initial
[13] = Pack-2 (Black Colored LDPE Bag with 1 g Silica Gel, HDPE Container), 25 ± 2° C., 60 ± 5% RH, 1st Month
[14] = Pack-2 (Black Colored LDPE Bag with 1 g Silica Gel, HDPE Container), 25 ± 2° C., 60 ± 5% RH, 3rd Month
[15] = Pack-2 (Black Colored LDPE Bag with 1 g Silica Gel, HDPE Container), 25 ± 2° C., 60 ± 5% RH, Initial
[16] = Pack-2 (Black Colored LDPE Bag with 1 g Silica Gel, HDPE Container), 40 ± 2° C., 75 ± 5% RH, 1st Month
[17] = Pack-2 (Black Colored LDPE Bag with 1 g Silica Gel, HDPE Container), 40 ± 2° C., 75 ± 5% RH, 3rd Month
[18] = Pack-2 (Black Colored LDPE Bag with 1 g Silica Gel, HDPE Container), 40 ± 2° C., 75 ± 5% RH, Initial
[19] = Pack-1 (LDPE Bag with 1 g Molecular Sieve, HDPE Container), 2-8° C., 1st Month
[20] = Pack-1 (LDPE Bag with 1 g Molecular Sieve, HDPE Container), 2-8° C., 3rd Month
[21] = Pack-1 (LDPE Bag with 1 g Molecular Sieve, HDPE Container), 2-8° C., Initial
[22] = Pack-1 (LDPE Bag with 1 g Molecular Sieve, HDPE Container), 25 ± 2° C., 60 ± 5% RH, 1st Month
[23] = Pack-1 (LDPE Bag with 1 g Molecular Sieve, HDPE Container), 25 ± 2° C., 60 ± 5% RH, 3rd Month
[24] = Pack-1 (LDPE Bag with 1 g Molecular Sieve, HDPE Container), 25 ± 2° C., 60 ± 5% RH, Initial
[25] = Pack-1 (LDPE Bag with 1 g Molecular Sieve, HDPE Container), 40 ± 2° C., 75 ± 5% RH, 1st Month
[26] = Pack-1 (LDPE Bag with 1 g Molecular Sieve, HDPE Container), 40 ± 2° C., 75 ± 5% RH, 3rd Month
[27] = Pack-1 (LDPE Bag with 1 g Molecular Sieve, HDPE Container), 40 ± 2° C., 75 ± 5% RH, Initial
[28] = Pack-2 (LDPE Bag with 1 g Silica Gel, HDPE Container), 2-8° C., 1st Month
[29] = Pack-2 (LDPE Bag with 1 g Silica Gel, HDPE Container), 2-8° C., 3rd Month
[30] = Pack-2 (LDPE Bag with 1 g Silica Gel, HDPE Container), 2-8° C., Initial
[31] = Pack-2 (LDPE Bag with 1 g Silica Gel, HDPE Container), 25 ± 2° C., 60 ± 5% RH, 1st Month
[32] = Pack-2 (LDPE Bag with 1 g Silica Gel, HDPE Container), 25 ± 2° C., 60 ± 5% RH, 3rd Month
[33] = Pack-2 (LDPE Bag with 1 g Silica Gel, HDPE Container), 25 ± 2° C., 60 ± 5% RH, Initial
[34] = Pack-2 (LDPE Bag with 1 g Silica Gel, HDPE Container), 40 ± 2° C., 75 ± 5% RH, 1st Month
[35] = Pack-2 (LDPE Bag with 1 g Silica Gel, HDPE Container), 40 ± 2° C., 75 ± 5% RH, 3rd Month
[36] = Pack-2 (LDPE Bag with 1 g Silica Gel, HDPE Container), 40 ± 2° C., 75 ± 5% RH, Initial

PXRD [1]: No change
Purity [1]: 99.84%
Water content [1]: 0.11 % w/w
PXRD [2]: No change
Purity [2]: 99.85%
Water content [2]: 0.14 % w/w
PXRD [3]: Form RLP
Purity [3]: 99.84%
Water content [3]: 0.09 % w/w
PXRD [4]: No change
Purity [4]: 99.84%
Water content [4]: 0.14 % w/w
PXRD [5]: No change
Purity [5]: 99.86%
Water content [5]: 0.12 % w/w
PXRD [6]: Form RLP
Purity [6]: 99.84%
Water content [6]: 0.09 % w/w
PXRD [7]: No change
Purity [7]: 99.84%
Water content [7]: 0.16 % w/w
PXRD [8]: No change
Purity [8]: 99.83%
Water content [8]: 0.21 % w/w
PXRD [9]: Form RLP
Purity [9]: 99.84%
Water content [9]: 0.09 % w/w
PXRD [10]: No change
Purity [10]: 99.82%
Water content [10]: 0.14 % w/w
PXRD [11]: No change
Purity [11]: 99.85%
Water content [11]: 0.16 % w/w
PXRD [12]: Form RLP
Purity [12]: 99.84%
Water content [12]: 0.09 % w/w
PXRD [13]: No change
Purity [13]: 99.84%
Water content [13]: 0.11 % w/w
PXRD [14]: No change
Purity [14]: 99.82%
Water content [14]: 0.13 % w/w
PXRD [15]: Form RLP
Purity [15]: 99.84%
Water content [15]: 0.09 % w/w
PXRD [16]: No change
Purity [16]: 99.83%
Water content [16]: 0.14 % w/w
PXRD [17]: No change
Purity [17]: 99.85%
Water content [17]: 0.11 % w/w
PXRD [18]: Form RLP
Purity [18]: 99.84%
Water content [18]: 0.09 % w/w
storage stability: stable
Compound: Cc1nc(C(=O)NCC(=O)O)c(O)c2ccc(Oc3ccccc3)cc12.O=C(O)[C@@H]1CCCN1 [Form RLP]

PXRD [19]: No change
Purity [19]: 99.66%
Water content [19]: 0.08 % w/w
PXRD [20]: No change
Purity [20]: 99.66%
Water content [20]: 0.08 % w/w
PXRD [21]: Form RNM
Purity [21]: 99.57%
Water content [21]: 0.12 % w/w
PXRD [22]: No change
Purity [22]: 99.63%
Water content [22]: 0.07 % w/w
PXRD [23]: No change
Purity [23]: 99.64%
Water content [23]: 0.08 % w/w
PXRD [24]: Form RNM
Purity [24]: 99.57%
Water content [24]: 0.12 % w/w
PXRD [25]: No change
Purity [25]: 99.65%
Water content [25]: 0.10 % w/w
PXRD [26]: No change
Purity [26]: 99.62%
Water content [26]: 0.07 % w/w
PXRD [27]: Form RNM
Purity [27]: 99.57%
Water content [27]: 0.12 % w/w
PXRD [28]: No change
Purity [28]: 99.62%
Water content [28]: 0.10 % w/w
PXRD [29]: No change
Purity [29]: 99.65%
Water content [29]: 0.08 % w/w
PXRD [30]: Form RNM
Purity [30]: 99.57%
Water content [30]: 0.12 % w/w
PXRD [31]: No change
Purity [31]: 99.65%
Water content [31]: 0.07 % w/w
PXRD [32]: No change
Purity [32]: 99.64%
Water content [32]: 0.11 % w/w
PXRD [33]: Form RNM
Purity [33]: 99.57%
Water content [33]: 0.12 % w/w
PXRD [34]: No change
Purity [34]: 99.61%
Water content [34]: 0.12 % w/w
PXRD [35]: No change
Purity [35]: 99.62%
Water content [35]: 0.07 % w/w
PXRD [36]: Form RNM
Purity [36]: 99.57%
Water content [36]: 0.12 % w/w
storage stability: stable
Compound: Cc1nc(C(=O)NCC(=O)O)c(O)c2ccc(Oc3ccccc3)cc12.NC(=O)c1cccnc1 [Form RNM]
